{
  "source": "patent US12103952B2",
  "about": "“Methods for expressing proteins in axons” (Cornell University, priority 2010, dated 2024)",
  "system": "pCREB",
  "test": "Nuclear pCREB, pTrkA and pErk5 immunofluorescence after axonal NGF in compartmented cultures",
  "assay_type": "cell-based, rat",
  "settings": "30 ng/ml NGF on axons, 20 min",
  "text": "FIGS. 9A-E are data showing that axonal CREB is required for CRE-dependent transcription and NGF-mediated DRG survival. (A) DRG axons in compartmented cultures were transfected with CREB siRNA in the axon compartment only, and CREB levels were detected using a CREB antibody. Axons crossing the compartment divider were retrogradely labeled with WGA-Alexa488. All compartments were maintained in NGF-containing media throughout the experiment. Scale bar, 50 μm. (B) Quantification of data in (A). Immunofluorescence levels in each compartment were normalized to fluorescence signals from cultures treated with non-targeting siRNA. *p<0.0001. Numbers on bars represent n axons per condition. […] After 48 hours, 30 ng/ml NGF was added to the axon compartment for 20 min, after which pCREB levels in nuclei were quantified by immunofluorescence. *p=0.0004. […]\nFIGS. 10A-G are data showing selective CREB knockdown in distal axons, but not proximal axons determined by compartmentalized siRNA transfection. […] (B) Quantification of data in (A). FISH levels in each compartment were normalized to fluorescence signals from cultures treated with non-targeting siRNA. β-actin mRNA FISH signals were unaffected by CREB-specific siRNA. *p<0.001. […] (C) Transfection was as in FIG. 9A, except CREB knockdown was assessed by Western blot instead of immunofluorescence. […]",
  "data": [
    {"substance": "NGF: nerve growth factor", "values": [
      {"measurement": "levels of pCREB in the nucleus", "result": "increased levels of pCREB in the nucleus"}
    ]}
  ]
}
